Assay results published in patent publication US20260294913A1, “COMBINATION THERAPY OF DACOMITINIB AND NINTEDANIB FOR PREVENTION OR TREATMENT OF PULMONARY FIBROSIS” (KOREA INSTITUTE OF RADIOLOGICAL & MEDICAL SCIENCES, priority 2023, published 2026).

Tested on: mice with radiation-induced pulmonary fibrosis
Test: Inhibitory effect on radiation-induced pulmonary fibrosis in mice (micro-CT, H&E and Masson's Trichrome staining)
Format: in vivo, C57BL/6 mice
Details: first dose 1 h prior to SBRT (90 Gy), two weeks after radiation, as compared to untreated group
Description: Seven-week-old male C57BL/6 mice were divided into groups receiving nintedanib, which is an FDA-approved pulmonary fibrosis inhibitor, dacomitinib, which is an EGFR TKI, and a combination thereof, and orally administered one hour prior to stereotactic body radiation therapy (SBRT) (90 Gy, 4 mm collimator). Two weeks after radiation, the degree of pulmonary fibrosis and the inhibitory effect on radiation-induced lung injury were observed.
The nintedanib group received 60 mg/kg daily, the dacomitinib group received 10 mg/kg daily, and the combination group received 60 mg/kg of nintedanib and 10 mg/kg of dacomitinib. All drugs were orally administered daily. In addition, to analyze the degree of inflammatory response and the degree of fibrosis, H&E staining and Masson's Trichrome staining were performed and the grade of pulmonary fibrosis and the degree of collagen deposition are graphically represented in FIG. 2.

SMILES: COc1cc2ncnc(Nc3ccc(F)c(Cl)c3)c2cc1NC(=O)/C=C/CN1CCCCC1 [dacomitinib, (E)-N-(4-((3-chloro-4-fluorophenyl)amino)-7-methoxyquinazolin-6-yl)-4-(piperidin-1-yl) but-2-enamide]
- degree of pulmonary fibrosis (dacomitinib alone, 10 mg/kg daily oral): reduced fibrosis

SMILES: COC(=O)c1ccc2c(c1)NC(=O)/C2=C(\Nc1ccc(N(C)C(=O)CN2CCN(C)CC2)cc1)c1ccccc1 [nintedanib, methyl (3Z)-3-{[(4-(methyl[(4-methylpiperazin-1-yl)acetyl]amino}phenyl)amino](phenyl)methylidene)-2-oxo-2,3-dihydro-1H-indole-6-carboxylate]
- degree of pulmonary fibrosis (nintedanib alone, 60 mg/kg daily oral): reduced fibrosis
